{"source": "PubChem BioAssay AID1996", "data": [{"details": "buffer; pH 7.4; 200.0 µM", "units": {"solubility kinetic": "µg/mL"}, "values": [{"smiles": "O=C(c1ccco1)N1CCN(S(=O)(=O)c2cccc(Cl)c2)CC1", "solubility kinetic": "> 53.2"}, {"smiles": "CC(=O)NC(C)C(=O)OCC(=O)c1ccc(-c2ccccc2)cc1", "note": "(centres undefined)", "solubility kinetic": 21.9}, {"smiles": "COCCNc1ncnc2c1[nH]c1ccccc12", "solubility kinetic": 36.2}, {"smiles": "Cc1cc(NC(=O)Cn2cnc3sc(C)c(C)c3c2=O)no1", "solubility kinetic": 17.3}, {"smiles": "CC1CCN(C(=O)c2ccc(CNS(=O)(=O)c3ccc(C(C)(C)C)cc3)cc2)CC1", "solubility kinetic": 8.3}, {"smiles": "Cc1ccc(-c2csc(NC(=O)c3c(C)noc3C)n2)cc1", "solubility kinetic": 6.4}, {"smiles": "CCCCC(=O)Nc1ccc(C2C(=O)c3ccccc3C2=O)cc1", "solubility kinetic": 44}, {"smiles": "Cn1cnc([N+](=O)[O-])c1Cl", "solubility kinetic": "> 24.2"}, {"smiles": "CSCc1ccc(C(=O)NC(C)c2ccc(-n3ccnc3)cc2)cc1", "note": "(centres undefined)", "solubility kinetic": 42.1}, {"smiles": "Cc1cc(C)c(S(=O)(=O)NC2CC(C)(C)NC(C)(C)C2)cc1Br", "solubility kinetic": 12.5}, {"smiles": "Nc1nc(Nc2ccc(Cl)cc2)c(NC=O)c(=O)[nH]1", "solubility kinetic": "> 42"}, {"smiles": "COc1cccc(Nc2c(Nc3cccc(OC)c3)c(=O)c2=O)c1", "solubility kinetic": "< 0.3"}, {"smiles": "CN(C)CCCNC(=S)Nc1ccc(Oc2ccccc2)cc1", "solubility kinetic": 43.1}, {"smiles": "CSc1ncccc1C(=O)Nc1ccncc1", "solubility kinetic": 34.6}, {"smiles": "COc1ccc(NC(=O)CCC(=O)N2CCCC2)c([N+](=O)[O-])c1", "solubility kinetic": "> 48.2"}, {"smiles": "NC(=O)Cn1cc(C(=O)c2ccccc2)c2ccccc21", "solubility kinetic": 10.8}, {"smiles": "COc1ccccc1N1CCNC(C)C1=O.Cl", "note": "(centres undefined)", "solubility kinetic": 33.4}, {"smiles": "CN(CC(=O)NCc1ccncc1)S(=O)(=O)c1ccc(Cl)cc1", "solubility kinetic": "> 53.1"}, {"smiles": "CC1CC(C)CN(C(=O)COC(=O)c2nccnc2N)C1", "note": "(centres undefined)", "solubility kinetic": "> 43.9"}, {"smiles": "O=C(Nc1ccc(Nc2ccccc2)cc1)c1cccc(F)c1", "solubility kinetic": 0.8}, {"smiles": "Cc1ccc(C)c(CNC(=O)Nc2ccccc2)c1", "solubility kinetic": 0.8}, {"smiles": "O=C(OCC(=O)N1CCC(Cc2ccccc2)CC1)c1cncc(Br)c1", "solubility kinetic": 9.9}, {"smiles": "Nc1cc(N)nc(SCC(=O)NCc2ccco2)n1", "solubility kinetic": "> 41.9"}, {"smiles": "Cc1ccc(S(=O)(=O)N2CCN(C(=O)CNC(=O)c3ccc(Cl)cc3)CC2)cc1", "solubility kinetic": 8.1}, {"smiles": "Cc1ccc(C(=O)OCC(=O)NC2CCCC2)cc1", "solubility kinetic": 22.5}, {"smiles": "CCOc1ccccc1NC(=O)c1cnccn1", "solubility kinetic": "> 36.5"}, {"smiles": "CCN(CC(=O)NCc1cccs1)C(=O)CCOc1ccccc1", "solubility kinetic": "> 52"}, {"smiles": "O=C(COC(=O)CCc1ccc(S(=O)(=O)N2CCOCC2)cc1)Nc1ccccc1[N+](=O)[O-]", "solubility kinetic": 16.8}, {"smiles": "N/C(COc1cc(Cl)cc(Cl)c1)=N\\O", "solubility kinetic": 34.3}, {"smiles": "Cc1cccc(NC(=O)c2c(O)c3ccccc3n(C)c2=O)c1", "solubility kinetic": "< 0.3"}, {"smiles": "COc1ccccc1Nc1nc(N)nc(CN2CCCCC2)n1", "solubility kinetic": "> 47.2"}, {"smiles": "COC(=O)C1CN(C(=O)COc2cc(C)cc(C)c2)c2ccccc2O1", "note": "(centres undefined)", "solubility kinetic": 3.7}, {"smiles": "O=[N+]([O-])c1ccc(N2CCOCC2)cc1N1CCCCC1", "solubility kinetic": "> 43.7"}, {"smiles": "Cc1ccc(/C=C/c2ccc3cccc(O)c3n2)s1", "solubility kinetic": 1.4}, {"smiles": "Cn1c(Oc2ccc(F)cc2F)c(C=O)c2ccccc21", "solubility kinetic": 16.6}, {"smiles": "Cc1c(C(=O)Nc2c(C)n(C)n(-c3ccccc3)c2=O)oc2ccc(Cl)cc12", "solubility kinetic": "> 59.4"}, {"smiles": "CC(=O)N1CCc2ccccc2C1CC(=O)O", "note": "(centres undefined)", "solubility kinetic": 32.7}, {"smiles": "COc1ccccc1/C=C(\\C#N)C(=O)c1cccn1C", "solubility kinetic": 9.7}, {"smiles": "O=C(OCC(=O)N1CCOCC1)c1cc(F)c(F)cc1Cl", "solubility kinetic": "> 48"}, {"smiles": "Cc1ccc(C)c(C(=O)CCC(=O)Nc2ccc(N3CCN(C)CC3)cc2C)c1", "solubility kinetic": 55.8}, {"smiles": "O=C(CSC1=NCCS1)c1ccc(Cl)cc1", "solubility kinetic": 31.2}, {"smiles": "Cc1cc(NS(=O)(=O)c2ccc(NC(=O)c3ccc([N+](=O)[O-])s3)cc2)nc(C)n1", "solubility kinetic": "> 65"}, {"smiles": "O=c1c2c([nH]c3ccccc13)CCC2", "solubility kinetic": "> 27.8"}, {"smiles": "O=C(CNC(=O)c1ccccc1)OCC(=O)c1ccccc1Cl", "solubility kinetic": "> 49.8"}, {"smiles": "COc1cc(C(=O)NCCOc2ccccc2C)cc(OC)c1OC", "solubility kinetic": 48.8}, {"smiles": "O=C(Nc1cccc(N2C(=O)C=CC2=O)c1)c1cccs1", "solubility kinetic": "> 44.7"}, {"smiles": "O=C(COC(=O)/C=C/c1cccc(F)c1)Nc1ccc(Cl)cn1", "solubility kinetic": 5}, {"smiles": "O=c1c(Cc2ccccc2)c(O)ccn1C1CCCCCCC1", "solubility kinetic": 1.5}, {"smiles": "Cc1cccc(-n2cnc3sc(C)c(C)c3c2=O)c1", "solubility kinetic": 2.5}, {"smiles": "O=S(=O)(NC1CC1)c1ccccc1", "solubility kinetic": 28.3}, {"smiles": "CCN1C(=O)c2cccc3c(Cl)ccc1c23", "solubility kinetic": 7}, {"smiles": "Cc1ccc(NC(=O)N2CCCc3ccccc32)cc1", "solubility kinetic": 36.2}, {"smiles": "CCN1CCCC1CNC(=O)CCc1nnc(CCC2CCCCC2)o1", "note": "(centres undefined)", "solubility kinetic": "> 54.4"}, {"smiles": "O=C1CCC(C(=O)OCC(=O)Nc2cc(Cl)ccc2F)=NN1", "solubility kinetic": "> 49.2"}, {"smiles": "O=Cc1ccc(OCCN2CCCC2=O)cc1", "solubility kinetic": "> 35"}, {"smiles": "NS(=O)(=O)c1ccc(CCNc2ccccc2[N+](=O)[O-])cc1", "solubility kinetic": 2.9}, {"smiles": "COc1cc(/C=N/NC(=O)c2ccccc2)ccc1O", "solubility kinetic": "> 40.5"}, {"smiles": "COc1ccc2[nH]cc(CCNCc3cccnc3)c2c1.Cl", "solubility kinetic": 46.2}, {"smiles": "Cc1cc(/C=C2\\SC(=S)NC2=O)c(C)[nH]1", "solubility kinetic": "> 35.7"}]}]}
